Test results reported in US4057636A, “Antihypertensive pyridylguanidine compounds” (Leo Pharmaceutical Products Ltd. A/S, priority 1974, dated 1977).

What was measured:
blood pressure = settings: J. Med. Chem. Vol. 11, p. 811 (1968); cited from earlier work
[1] = test system: vasopressor response to norepinephrine; assay: Reduction of vasopressor response to norepinephrine (NE) in cats; format: in vivo, cat; settings: 0.01 mg/kg i.v.; norepinephrine hydrochloride 1 meg/kg i.v.
Description: (§1) Hypotensive action and various cardiovascular and autonomic responses in cats.
(§2) Cats of both sexes anaestetized with pentobarbital […]. were used. The left carotid artery was exposed and cannulated with polyethylene cannula connected through a Statham pressure transducer to a Grass Polygraph Recorder. […] The compound was administered dissolved in dilute HCl in a volume of 0.4 ml. […] Both procedures are known to produce pressor effects. […]

[2] = test system: conscious spontaneously hypertensive rats; assay: Antihypertensive activity in conscious spontaneously hypertensive rats; format: in vivo, rat (spontaneously hypertensive Okamoto strain)
Description: Male albino rats, spontaneously hypertensive Okamoto strain, fasting 16 hours before the experiments were used. The conscious animals were restrained in a plastic cage and a cuff was secured around the tail. The cuff was connected with an electronic blood pressure recorder. The systolic blood pressure and the heart rate were measured before and 2, 4, 6, and 24 hours after the administration of compounds. The compounds were suspended or dissolved in carboxymethylcellulose 0.5%. […] There are also included, for comparison, the results obtained under the same experimental conditions with some known antihypertensive drugs, and the approximate oral LD50 in mice are stated.

[3] = test system: common carotid artery occlusion pressor response; assay: Reduction of pressor response to common carotid artery occlusion (CO) in cats; format: in vivo, cat; settings: 0.01 mg/kg i.v.; carotid artery occlusion 45 secs
Description: as §1, §2

cats = assay: Hypotensive action in anaesthetized cats (ΔBP, ΔHR); format: in vivo, cat
Description: as §1, §2

nictitating membrane = assay: Reduction of contraction of nictitating membrane, pre- and postganglionic stimulation, in cats; format: in vivo, cat; settings: for Nict. Membr. post % reduction: postganglionic stimulation (3 V, 1 msec, 5 secs); for Nict. Membr. pre % reduction: preganglionic stimulation (3 V, 1 msec, 40 Hz, 5 secs)
Description: as §1, §2

[4] = test system: normotensive anaesthetized rats; assay: Hypotensive activity in normotensive anaesthetized rats; format: in vivo, rat (Sprague Dowley); settings: for Δ mean blood pressure: at time of peak effect
Description: Male albino Sprague Dowley strain rats were anaesthetized with pentobarbital and fastened to rat boards in a supine position. The left carotid artery was exposed and cannulated with polyethylene cannula connected through a Statham pressure transducer to a Grass Polygraph Recorder. […] The compound was dissolved in dilute HCl. […] Table 1 summarizes the effects on mean blood pressure at the time of peak effect.

[5] = test system: conscious normotensive dogs; assay: Hypotensive activity in conscious normotensive dogs; format: in vivo, dog (mongrel); settings: 0.1 mg/kg oral
Description: Hypotensive activity in conscious normotensive dogs
Mongrel dogs of both sexes, fasting 16 hours before the experiment were used. […] The compounds were orally administered in gelatine capsules.

[6] = 0.01 mg/kg i.v., line with NE/CO
[7] = 0.01 mg/kg i.v., line with nictitating membrane
[8] = 0.05 mg/kg i.v., line with nictitating membrane

Question: Which “hypotensive effect (literature)” value (blood pressure) does the source give for `CCC(C)(C)NC(=N)NC#N` [Guancydine, N-cyano-N'-tert-pentylguanidine] here?
Answer: the most potent of the compounds of the above-mentioned literature

Question: With `CC(C)(C)NC(=NC#N)Nc1cccnc1` [P 1060, N-tert-Butyl-N"-cyano-N'-3-pyridylcuanidine] as the compound, how does the NE % reduction [1] read?
Answer: 50%

Question: What about the BP ([2]; 0.01 mg/kg, 2 hours) of the same compound?
Answer: 141 mm Hg

Question: And the HR ([2]; 0.01 mg/kg, 2 hours)?
Answer: 419 beats/minute

Question: What about the BP ([2]; 0.01 mg/kg, 4 hours) of the same compound?
Answer: 145 mm Hg

Question: What about the HR ([2]; 0.01 mg/kg, 4 hours) of the same compound?
Answer: 423 beats/minute

Question: And the BP ([2]; 0.01 mg/kg, 6 hours)?
Answer: 146 mm Hg

Question: And the HR ([2]; 0.01 mg/kg, 6 hours)?
Answer: 428 beats/minute

Question: What about the BP ([2]; 0.01 mg/kg, 24 hours) of the same compound?
Answer: 176 mm Hg

Question: And the HR ([2]; 0.01 mg/kg, 24 hours)?
Answer: 402 beats/minute

Question: And the BP ([2]; 0.05 mg/kg, 2 hours)?
Answer: 126 mm Hg

Question: What about the HR ([2]; 0.05 mg/kg, 2 hours) of the same compound?
Answer: 422 beats/minute

Question: And the BP ([2]; 0.05 mg/kg, 4 hours)?
Answer: 132 mm Hg

Question: What about the HR ([2]; 0.05 mg/kg, 4 hours) of the same compound?
Answer: 420 beats/minute

Question: What about the BP ([2]; 0.05 mg/kg, 6 hours) of the same compound?
Answer: 127 mm Hg

Question: And the HR ([2]; 0.05 mg/kg, 6 hours)?
Answer: 410 beats/minute

Question: And the BP ([2]; 0.05 mg/kg, 24 hours)?
Answer: 170 mm Hg

Question: What about the HR ([2]; 0.05 mg/kg, 24 hours) of the same compound?
Answer: 386 beats/minute

Question: What about the BP ([2]; 0.1 mg/kg, 2 hours) of the same compound?
Answer: 118 mm Hg

Question: What about the HR ([2]; 0.1 mg/kg, 2 hours) of the same compound?
Answer: 420 beats/minute

Question: What about the BP ([2]; 0.1 mg/kg, 4 hours) of the same compound?
Answer: < 100 mm Hg

Question: And the HR ([2]; 0.1 mg/kg, 4 hours)?
Answer: 426 beats/minute

Question: And the BP ([2]; 0.1 mg/kg, 6 hours)?
Answer: 114 mm Hg

Question: And the HR ([2]; 0.1 mg/kg, 6 hours)?
Answer: 422 beats/minute

Question: What about the BP ([2]; 0.1 mg/kg, 24 hours) of the same compound?
Answer: 170 mm Hg

Question: And the HR ([2]; 0.1 mg/kg, 24 hours)?
Answer: 408 beats/minute

Question: What about the BP ([2]; 0.5 mg/kg, 2 hours) of the same compound?
Answer: < 100 mm Hg

Question: And the BP ([2]; 0.5 mg/kg, 4 hours)?
Answer: < 100 mm Hg

Question: What about the BP ([2]; 0.5 mg/kg, 6 hours) of the same compound?
Answer: < 100 mm Hg

Question: And the BP ([2]; 0.5 mg/kg, 24 hours)?
Answer: 153 mm Hg

Question: What about the HR ([2]; 0.5 mg/kg, 24 hours) of the same compound?
Answer: 413 beats/minute

Question: And the BP ([2]; 1.0 mg/kg, 2 hours)?
Answer: < 100 mm Hg

Question: And the BP ([2]; 1.0 mg/kg, 4 hours)?
Answer: < 100 mm Hg

Question: What about the BP ([2]; 1.0 mg/kg, 6 hours) of the same compound?
Answer: < 100 mm Hg

Question: And the BP ([2]; 1.0 mg/kg, 24 hours)?
Answer: 126 mm Hg

Question: What about the HR ([2]; 1.0 mg/kg, 24 hours) of the same compound?
Answer: 405 beats/minute

Question: What about the CO % reduction [3] of the same compound?
Answer: 100%

Question: What about the ΔBP (cats; [6]) of the same compound?
Answer: 90 mm Hg

Question: What about the ΔHR (cats; [6]) of the same compound?
Answer: 20 beats/min.

Question: What about the ΔBP (cats; [7]) of the same compound?
Answer: 90 mm Hg

Question: And the ΔHR (cats; [7])?
Answer: 35 beats/min.

Question: And the ΔBP (cats; [8])?
Answer: 110 mm Hg

Question: What about the ΔHR (cats; [8]) of the same compound?
Answer: 30 beats/min.

Question: And the “Nict. Membr. post % reduction” value (nictitating membrane; 0.01 mg/kg i.v.)?
Answer: 12%

Question: What about the “Nict. Membr. pre % reduction” value (nictitating membrane; 0.01 mg/kg i.v.) of the same compound?
Answer: 20%

Question: What about the “Nict. Membr. post % reduction” value (nictitating membrane; 0.05 mg/kg i.v.) of the same compound?
Answer: 21%

Question: And the “Nict. Membr. pre % reduction” value (nictitating membrane; 0.05 mg/kg i.v.)?
Answer: 12%

Question: What about the duration ([4]; 0.002 mg/kg i.v.) of the same compound?
Answer: 3 min

Question: And the “Δ mean blood pressure” value ([4]; 0.002 mg/kg i.v.)?
Answer: -70 mm Hg

Question: And the duration ([4]; 0.005 mg/kg i.v.)?
Answer: 12 min

Question: And the “Δ mean blood pressure” value ([4]; 0.005 mg/kg i.v.)?
Answer: -70 mm Hg

Question: What about the duration ([4]; 0.010 mg/kg i.v.) of the same compound?
Answer: > 45 min

Question: What about the “Δ mean blood pressure” value ([4]; 0.010 mg/kg i.v.) of the same compound?
Answer: -85 mm Hg

Question: And the BP ([5]; Dog I, 1 hour)?
Answer: 75 mm Hg

Question: What about the HR ([5]; Dog I, 1 hour) of the same compound?
Answer: 152 beats/minute

Question: What about the UV ([5]; Dog I, 1 hour) of the same compound?
Answer: 2.3 mL

Question: And the BP ([5]; Dog I, 2 hours)?
Answer: 80 mm Hg

Question: And the HR ([5]; Dog I, 2 hours)?
Answer: 180 beats/minute

Question: What about the UV ([5]; Dog I, 2 hours) of the same compound?
Answer: 7.1 mL

Question: What about the BP ([5]; Dog I, 3 hours) of the same compound?
Answer: 90 mm Hg

Question: What about the HR ([5]; Dog I, 3 hours) of the same compound?
Answer: 152 beats/minute

Question: And the UV ([5]; Dog I, 3 hours)?
Answer: 11 mL

Question: What about the BP ([5]; Dog I, 4 hours) of the same compound?
Answer: 120 mm Hg

Question: And the HR ([5]; Dog I, 4 hours)?
Answer: 140 beats/minute

Question: And the UV ([5]; Dog I, 4 hours)?
Answer: 22 mL

Question: What about the BP ([5]; Dog II, 1 hour) of the same compound?
Answer: 100 mm Hg

Question: What about the HR ([5]; Dog II, 1 hour) of the same compound?
Answer: 112 beats/minute

Question: And the UV ([5]; Dog II, 1 hour)?
Answer: 8 mL

Question: What about the BP ([5]; Dog II, 2 hours) of the same compound?
Answer: 95 mm Hg

Question: What about the HR ([5]; Dog II, 2 hours) of the same compound?
Answer: 128 beats/minute

Question: What about the UV ([5]; Dog II, 2 hours) of the same compound?
Answer: 12.5 mL

Question: And the BP ([5]; Dog II, 3 hours)?
Answer: 95 mm Hg

Question: And the HR ([5]; Dog II, 3 hours)?
Answer: 104 beats/minute

Question: What about the UV ([5]; Dog II, 3 hours) of the same compound?
Answer: 22.5 mL

Question: And the BP ([5]; Dog II, 4 hours)?
Answer: 105 mm Hg

Question: And the HR ([5]; Dog II, 4 hours)?
Answer: 100 beats/minute

Question: What about the UV ([5]; Dog II, 4 hours) of the same compound?
Answer: 16 mL

Question: And the BP ([5]; Dog III, 1 hour)?
Answer: 65 mm Hg

Question: And the HR ([5]; Dog III, 1 hour)?
Answer: 172 beats/minute

Question: What about the UV ([5]; Dog III, 1 hour) of the same compound?
Answer: 22 mL

Question: And the BP ([5]; Dog III, 2 hours)?
Answer: 115 mm Hg

Question: And the HR ([5]; Dog III, 2 hours)?
Answer: 104 beats/minute

Question: And the UV ([5]; Dog III, 2 hours)?
Answer: 20 mL

Question: What about the BP ([5]; Dog III, 3 hours) of the same compound?
Answer: 110 mm Hg

Question: And the HR ([5]; Dog III, 3 hours)?
Answer: 92 beats/minute

Question: And the UV ([5]; Dog III, 3 hours)?
Answer: 12 mL

Question: What about the BP ([5]; Dog III, 4 hours) of the same compound?
Answer: 125 mm Hg

Question: And the HR ([5]; Dog III, 4 hours)?
Answer: 88 beats/minute

Question: And the UV ([5]; Dog III, 4 hours)?
Answer: 14 mL
